Assay results: patent US12696901B2, “Pesticidally active heterocyclic derivatives with sulfur containing substituents” (SYNGENTA CROP PROTECTION AG, priority 2020, dated 2026)

Columns and labels:
Type in all cases: in vivo
[1] = tested on: Bemisia tabaci (Cotton White Fly); experiment: Activity against Bemisia tabaci (cotton white fly), sprayed cotton leaf discs; conditions: foliar, 144 h, application rate 200 ppm, adult white flies, 6 days after incubation
Protocol: Example B1: Activity Against Bemisia tabaci (Cotton White Fly)
Cotton leaf discs were placed on agar in 24-well microtiter plates and sprayed with aqueous test solutions prepared from 10,000 ppm DMSO stock solutions. After drying the leaf discs were infested with adult white flies. The samples were checked for mortality 6 days after incubation.

[2] = tested on: Diabrotica balteata (Corn Root Worm); experiment: Activity against Diabrotica balteata (corn root worm), sprayed maize sprouts on agar; conditions: 96 h, application rate 200 ppm, L2 larvae, 4 days after infestation, read-out: effect in at least one of the two categories (mortality or growth inhibition)
Protocol: Example B2: Activity Against Diabrotica balteata (Corn Root Worm)
Maize sprouts placed onto an agar layer in 24-well microtiter plates were treated with aqueous test solutions prepared from 10,000 ppm DMSO stock solutions by spraying. After drying, the plates were infested with L2 larvae (6 to 10 per well). The samples were assessed for mortality and growth inhibition in comparison to untreated samples 4 days after infestation.

[3] = tested on: Euschistus heros (Neotropical Brown Stink Bug); experiment: Activity against Euschistus heros (neotropical brown stink bug), sprayed soybean leaves; conditions: 120 h, application rate 200 ppm, N2 nymphs, 5 days after infestation, read-out: effect in at least one of the two categories (mortality or growth inhibition)
Protocol: Example B3: Activity Against Euschistus heros (Neotropical Brown Stink Bug)
Soybean leaves on agar in 24-well microtiter plates were sprayed with aqueous test solutions prepared from 10,000 ppm DMSO stock solutions. After drying the leaves were infested with N2 nymphs. The samples were assessed for mortality and growth inhibition in comparison to untreated samples 5 days after infestation.

[4] = tested on: Plutella xylostella (Diamond Back Moth); experiment: Activity against Plutella xylostella (diamond back moth), treated artificial diet; conditions: 192 h, application rate 200 ppm, eggs, 8 days after infestation, read-out: effect in at least one of the two categories (mortality or growth inhibition)
Protocol: Example B5: Activity Against Plutella xylostella (Diamond Back Moth)
24-well microtiter plates with artificial diet were treated with aqueous test solutions prepared from 10,000 ppm DMSO stock solutions by pipetting. After drying, Plutella eggs were pipetted through a plastic stencil onto a gel blotting paper and the plate was closed with it. The samples were assessed for mortality and growth inhibition in comparison to untreated samples 8 days after infestation.

[5] = tested on: Myzus persicae (Green Peach Aphid); experiment: Activity against Myzus persicae (green peach aphid), feeding/contact activity; conditions: 144 h, application rate 200 ppm, mixed ages, 6 days after infestation
Protocol: Example B6: Activity Against Myzus persicae (Green Peach Aphid) Feeding/Contact Activity
Sunflower leaf discs were placed onto agar in a 24-well microtiter plate and sprayed with aqueous test solutions prepared from 10,000 ppm DMSO stock solutions. After drying, the leaf discs were infested with an aphid population of mixed ages. The samples were assessed for mortality 6 days after infestation.

[6] = tested on: Spodoptera littoralis (Egyptian Cotton Leaf Worm); experiment: Activity against Spodoptera littoralis (Egyptian cotton leaf worm), sprayed cotton leaf discs; conditions: foliar, 72 h, application rate 200 ppm, L1 larvae, 3 days after infestation
Protocol: Example B7: Activity Against Spodoptera littoralis (Egyptian Cotton Leaf Worm)
Cotton leaf discs were placed onto agar in 24-well microtiter plates and sprayed with aqueous test solutions prepared from 10,000 ppm DMSO stock solutions. After drying the leaf discs were infested with five L1 larvae. The samples were assessed for mortality, anti-feeding effect, and growth inhibition in comparison to untreated samples 3 days after infestation. Control of Spodoptera littoralis by a test sample is given when at least one of the categories mortality, anti-feedant effect, and growth inhibition is higher than the untreated sample.

[7] = tested on: Carpocapsa (Cydia) Pomonella (Codling Moth); experiment: Activity against Carpocapsa (Cydia) pomonella (codling moth), sprayed diet cubes; conditions: 336 h, application rate 12.5 ppm, L1 larvae, 14 days after infestation, read-out: effect in at least one of the two categories (mortality or growth inhibition)
Protocol: Example B11: Activity Against Carpocapsa (Cydia) Pomonella (Codling Moth)
Diet cubes coated with paraffin were sprayed with diluted test solutions in an application chamber. After drying off the treated cubes (10 replicates) were infested with 1 L1 larvae. Samples were incubated at 26-27° C. and checked 14 days after infestation for mortality and growth inhibition. The following compounds gave an effect of at least 80% in at least one of the two categories (mortality or growth inhibition) at an application rate of 12.5 ppm: P1, P2, P3, P4, P5, P6, P10, P11, P12, P14, P15, P16, P17, P19, P20, P21, P22, P24, P27, P29, P30, P33, P34, P35.

[8] = tested on: Diabrotica balteata (Corn Root Worm); experiment: Activity against Diabrotica balteata (corn root worm), corn seedlings on filter paper in cups; conditions: 120 h, application rate 3 ppm, L2 larva, 5 days after treatment, read-out: effect in at least one of the two categories (mortality or growth inhibition)
Protocol: Example B12: Activity Against Diabrotica Balteata (Corn Root Worm)
Three corn seedlings were placed on wetted filter paper in plastic cups, and 3 ml of diluted test solutions were pipetted onto them. The cups were infested with 10 L2 larva and checked for mortality and growth regulation 5 days after treatment.

[9] = tested on: Frankliniella occidentalis (Western Flower Thrips); experiment: Activity against Frankliniella occidentalis (western flower thrips), sprayed sunflower leaf discs; conditions: foliar, 168 h, application rate 200 ppm, population of mixed ages, 7 days after infestation
Protocol: Example B4: Activity Against Frankliniella occidentalis (Western Flower Thrips)
Sunflower leaf discs were placed on agar in 24-well microtiter plates and sprayed with aqueous test solutions prepared from 10,000 ppm DMSO stock solutions. After drying the leaf discs were infested with a Frankliniella population of mixed ages. The samples were assessed for mortality 7 days after infestation.

[10] = tested on: Chilo suppressalis (Striped Rice Stemborer); experiment: Activity against Chilo suppressalis (striped rice stemborer), treated artificial diet; conditions: 144 h, application rate 200 ppm, L2 larvae, 6 days after infestation
Protocol: Example B10: Activity Against Chilo suppressalis (Striped Rice Stemborer)
24-well microtiter plates with artificial diet were treated with aqueous test solutions prepared from 10,000 ppm DMSO stock solutions by pipetting. After drying, the plates were infested with L2 larvae (6-8 per well). The samples were assessed for mortality, anti-feeding effect, and growth inhibition in comparison to untreated samples 6 days after infestation. Control of Chilo suppressalis by a test sample is given when at least one of the categories mortality, anti-feedant effect, and growth inhibition is higher than the untreated sample.

CCS(=O)(=O)c1c(N2Cc3cnc(C(F)(F)F)cc3C2=O)sc2cc(C(F)(F)F)ccc12 [Compound P1, 2-[3-ethylsulfonyl-6-(trifluoromethyl)benzothiophen-2-yl]-6-(trifluoromethyl)-3H-pyrrolo[3,4-c]pyridin-1-one]
≥ 80%: mortality at 200 ppm [1] | percent effect (mortality or growth inhibition) at 200 ppm [2] | percent effect (mortality or growth inhibition) at 200 ppm [3] | percent effect (mortality or growth inhibition) at 200 ppm [4] | mortality at 200 ppm [5] | percent control (mortality, anti-feedant effect or growth inhibition) at 200 ppm [6] | percent effect (mortality or growth inhibition) at 12.5 ppm [7] | percent effect (mortality or growth inhibition) at 3 ppm [8]

CCS(=O)(=O)c1c(N2Cc3ncc(C(F)(F)F)cc3C2=O)nc2cc(C3(C#N)CC3)ccn12 [Compound P3, 1-[3-ethylsulfonyl-2-[5-oxo-3-(trifluoromethyl)-7H-pyrrolo[3,4-b]pyridin-6-yl]imidazo [1,2-a]pyridin-7-yl] cyclopropane-carbonitrile]
≥ 80%: mortality at 200 ppm [1] | percent effect (mortality or growth inhibition) at 200 ppm [2] | percent effect (mortality or growth inhibition) at 200 ppm [3] | mortality at 200 ppm [9] | percent effect (mortality or growth inhibition) at 200 ppm [4] | mortality at 200 ppm [5] | percent control (mortality, anti-feedant effect or growth inhibition) at 200 ppm [6] | percent effect (mortality or growth inhibition) at 12.5 ppm [7] | percent effect (mortality or growth inhibition) at 3 ppm [8]

CCS(=O)(=O)c1c(N2Cc3ncc(C(F)(F)F)cc3C2=O)nc2ccc(C(F)(F)F)cn12 [Compound P4, 6-[3-ethylsulfonyl-6-(trifluoromethyl)imidazo[1,2-a]pyridin-2-yl]-3-(trifluoromethyl)-7H-pyrrolo[3,4-b] pyridin-5-one]
≥ 80%: mortality at 200 ppm [1] | percent effect (mortality or growth inhibition) at 200 ppm [2] | percent effect (mortality or growth inhibition) at 200 ppm [3] | percent effect (mortality or growth inhibition) at 200 ppm [4] | mortality at 200 ppm [5] | percent control (mortality, anti-feedant effect or growth inhibition) at 200 ppm [6] | percent effect (mortality or growth inhibition) at 12.5 ppm [7] | percent effect (mortality or growth inhibition) at 3 ppm [8]

CCS(=O)(=O)c1c(N2Cc3ccc(OC(F)(F)F)cc3C2=O)nc2ccc(C(F)(F)F)cn12 [Compound P6, 2-[3-ethylsulfonyl-6-(trifluoromethyl)imidazo[1,2-a]pyridin-2-yl]-6-(trifluoromethoxy) isoindolin-1-one]
≥ 80%: mortality at 200 ppm [1] | percent effect (mortality or growth inhibition) at 200 ppm [2] | percent effect (mortality or growth inhibition) at 200 ppm [3] | percent effect (mortality or growth inhibition) at 200 ppm [4] | mortality at 200 ppm [5] | percent control (mortality, anti-feedant effect or growth inhibition) at 200 ppm [6] | percent effect (mortality or growth inhibition) at 12.5 ppm [7] | percent effect (mortality or growth inhibition) at 3 ppm [8]

CCS(=O)(=O)c1c(N2Cc3ccc(OC(F)(F)F)cc3C2=O)nc2cc(C(F)(F)F)ccn12 [Compound P7, 2-[3-ethylsulfonyl-7-(trifluoromethyl)imidazo[1,2-a]pyridin-2-yl]-6-(trifluoromethoxy) isoindolin-1-one]
≥ 80%: mortality at 200 ppm [1] | percent effect (mortality or growth inhibition) at 200 ppm [2] | percent effect (mortality or growth inhibition) at 200 ppm [4] | mortality at 200 ppm [5] | percent control (mortality, anti-feedant effect or growth inhibition) at 200 ppm [6] | percent effect (mortality or growth inhibition) at 3 ppm [8]

CCS(=O)(=O)c1c(N2Cc3ncc(C(F)(F)F)cc3C2=O)nc2ccc(OC(C)(C)C#N)cn12 [Compound P20, 2-[3-ethylsulfonyl-2-[5-oxo-3-(trifluoromethyl)-7H-pyrrolo[3,4-b]pyridin-6-yl]imidazo [1,2-a]pyridin-6-yl] oxy-2-methyl-propanenitrile]
≥ 80%: mortality at 200 ppm [1] | percent effect (mortality or growth inhibition) at 200 ppm [2] | percent effect (mortality or growth inhibition) at 200 ppm [4] | mortality at 200 ppm [5] | percent control (mortality, anti-feedant effect or growth inhibition) at 200 ppm [6] | percent control (mortality, anti-feedant effect or growth inhibition) at 200 ppm [10] | percent effect (mortality or growth inhibition) at 12.5 ppm [7] | percent effect (mortality or growth inhibition) at 3 ppm [8]

CCS(=O)(=O)c1c(N2Cc3ccc(OC(F)(F)F)cc3C2=O)nc2ccc(OC(C)(C)C#N)cn12 [Compound P26, 2-[3-ethylsulfonyl-2-[1-oxo-6-(trifluoromethoxy)isoindolin-2-yl]imidazo[1,2-a]pyridin-6-yl]oxy-2-methyl-propanenitrile]
≥ 80%: mortality at 200 ppm [1] | percent effect (mortality or growth inhibition) at 200 ppm [2] | percent effect (mortality or growth inhibition) at 200 ppm [4] | mortality at 200 ppm [5] | percent control (mortality, anti-feedant effect or growth inhibition) at 200 ppm [6] | percent control (mortality, anti-feedant effect or growth inhibition) at 200 ppm [10] | percent effect (mortality or growth inhibition) at 3 ppm [8]

CCS(=O)(=O)c1c(N2Cc3ncc(C(F)(F)F)cc3C2=O)nc2ccc(C3CC3)cn12 [Compound P27, 6-(6-cyclopropyl-3-ethylsulfonyl-imidazo [1,2-a]pyridin-2-yl)-3-(trifluoromethyl)-7H-pyrrolo[3,4-b]pyridin-5-one]
≥ 80%: percent effect (mortality or growth inhibition) at 200 ppm [2] | percent effect (mortality or growth inhibition) at 200 ppm [3] | mortality at 200 ppm [9] | percent effect (mortality or growth inhibition) at 200 ppm [4] | mortality at 200 ppm [5] | percent control (mortality, anti-feedant effect or growth inhibition) at 200 ppm [6] | percent control (mortality, anti-feedant effect or growth inhibition) at 200 ppm [10] | percent effect (mortality or growth inhibition) at 12.5 ppm [7] | percent effect (mortality or growth inhibition) at 3 ppm [8]
